Values joined by “and” are separate entries in the source; they are usually repeats but may differ in a detail not shown here. Identical values can stand only once. Marks after values point to notes of the source that are not given here.
Columns and labels:
[1] = Cyromazine residue in eggs (Example 15); design: species or system Lohman laying hens; conditions: female, Lohman, chicken, in vivo
Description: (§1) Twenty four Lohman laying hens were placed in conventional layer cages (2 birds per cage) and divided into 6 experimental groups of 4 birds per group.
(§2) The hens were fed for three weeks with laying hens feed (17.5% protein, no AGP) supplemented with a Cyromazine product as summarized in Table 12.
After four weeks of feeding according to the experimental groups of example 13, eggs were collected.
For each treatment 16 eggs were collected (4 eggs from each hen). The contents of the 4 eggs (without the shell) of each bird were pooled in one container marked to indicate the treatment. Each container was a sample. A total of 4 tests were performed for each treatment. The containers were packed in a temperature-controlled pack that was sent for Cyromazine analysis to Eurofines laboratory in Germany.
Samples are weighed and one or more samples is spiked with an internal standard.
Acetonitrile is added and the sample is vortexed. Petroleum ether is added and a liquid/liquid extraction is performed in a shaker followed by centrifugation. An aliquot of the acetonitrile phase is removed and reduced in volume to near dryness then resolved by adding water and methanol. The mixture is vortexed then filtered by membrane filter and analyzed—Liquid chromatographic determination with LC-MS/MS. Quantitation is via comparison with samples spiked with an internal standard.

[2] = tested on: young fly larvae (stage 1); experiment: Insecticidal activity in manure of hens fed Cyromazine products (Example 14); format: in vivo; conditions: Cyromazine in feed 5 PPM
Experimental: as §1, §2
After three weeks of feeding according to the experimental groups of example 3, manure was collected from each group of hens. The manure was frozen for 48 hours to destroy any insects present and then thawed.
For each experimental group, 5 cups containing 100 g thawed manure were prepared (70-75% moisture). Each cup represents a group replicate.
Thirty young fly larvae (stage 1) were placed in each cup and incubated in an insectarium for 10 days. After ten days the pupae/larvae/flies were counted. Analysis of variance was done using a One Way Anova test and the comparison of means was done with Tukey-Kramer test, significance level-α=0.05.

Compound: Nc1nc(N)nc(NC2CC2)n1 [NGNEC, Cyromazine]
- concentration at 4 weeks [1]: 88 ng/g
- Cyromazine in eggs, % of Larvadex 0.5% group ([1]; 4 weeks): 102%
- Dead larvae and pupas % [2]: 0%
- Normal pupa % [2]: 0^b %
- Survival rate = (No of flies + normal pupas)/30*100 [2]: 0% and 0^b %
- Flies % ([2]; 10 days): 0^b %
